# Results as given in patent US10717730B1, “Dihydroisoquinoline compound” (SUZHOU ARK BIOPHARMACEUTICAL CO., LTD., priority 2017, dated 2020).
# Test system: HBsAg
# Assay: HBsAg assay (secreted HBsAg by CLIA in HepG2.2.15 cells)
# Assay type: cell-based, hepatitis B virus (HBV)
# Details: Hepatitis B virus, HepG2.2.15, 96 h
# Method: HepG2.2.15 cells (Sells et al, Proc Natl Acad Sci USA. 1987 February; 84(4):1005-9), a constitutively HBV-expressing cell line, were cultured in DMEM medium supplemented with 10% FBS and 400 μg/mL G418, and maintained in 5% CO2 at 37° C.
# HepG2.2.15 cells were seeded into 96-well plates at 3×10^4 cells/well. The next day, the cells were treated with a five-fold serial dilution series of the compound in DMSO. The final DMSO concentration in all wells was 0.5% and 0.5% DMSO was used as no drug control. After four days of incubation with compounds, the supernatants were harvested and measured for HBsAg concentration
# The HBsAg chemiluminescence immunoassay (CLIA) kit was used to measure the levels of secreted HBsAg. Specifically, 50 μL of culture supernatant was transferred to the CLIA assay plate and 50 μL of enzyme conjugate reagent was added into each well. The plates were sealed and incubated for 1 hour at room temperature. The supernatant-enzyme-mixture was discarded and wells were washed for 6 times. The residual liquid was removed by plating on tissue paper. 25 μL of substrate A and B were added into each well. Luminance was measured using a spectrometer (Tecan Infinite® F200) after 10 minutes incubation. IC50 value was extrapolated based the dose-response curves generated from the data.
row,Compound,IC50
1,"CCOC(=O)c1cn2c(cc1=O)-c1cc(OC)c(-c3ccc(C)nc3)cc1CC2C(C)(C)C (stereo not shown) [Example 55, Ethyl 6-(tert-butyl)-10-methoxy-9-(6-methylpyridin-3-yl)-2-oxo-6,7-dihydro-2H-pyrido[2,1-a]isoquinoline-3-carboxylate]",0.8 nM
2,"COc1cc2c(cc1-c1ccc(N3CCOCC3)nc1)CC(C(C)(C)C)n1cc(C(=O)O)c(=O)cc1-2 (stereo not shown) [Example 40, 6-(tert-butyl)-10-methoxy-9-(6-morpholinylpyridin-3-yl)-2-oxo-6,7-dihydro-2H-pyrido[2,1-a]isoquinoline-3-carboxylic acid]",6 nM
3,"COc1cc2c(cc1-c1ccc(N3CCCC3)nc1)CC(C(C)(C)C)n1cc(C(=O)O)c(=O)cc1-2 (stereo not shown) [Example 44, 6-(tert-butyl)-10-methoxy-2-oxo-9-(6-(pyrrolidin-1-yl)pyridin-3-yl)-6,7-dihydro-2H-pyrido[2,1-a]isoquinoline-3-carboxylic acid]",10 nM
4,"COc1cc2c(cc1-c1ccc(F)nc1)CC(C(C)(C)C)n1cc(C(=O)O)c(=O)cc1-2 (stereo not shown) [Example 49, 6-(tert-butyl)-9-(6-fluoropyridin-3-yl)-10-methoxy-2-oxo-6,7-dihydro-2H-pyrido[2,1-a]isoquinoline-3-carboxylic acid]",14 nM
5,"COc1cc2c(cc1-c1cnc(Cl)nc1)CC(C(C)(C)C)n1cc(C(=O)O)c(=O)cc1-2 (stereo not shown) [Example 68, 6-(tert-butyl)-9-(2-chloropyrimidin-5-yl)-10-methoxy-2-oxo-6,7-dihydro-2H-pyrido[2,1-a]isoquinoline-3-carboxylic acid]",0.6 nM
6,"COc1cc2c(cc1-c1ccc(NCC3CC3)nc1)CC(C(C)(C)C)n1cc(C(=O)O)c(=O)cc1-2 (stereo not shown) [Example 52, 6-(tert-butyl)-9-(6-(cyclopropylmethylamino)pyridin-3-yl)-10-methoxy-2-oxo-6,7-dihydro-2H-pyrido[2,1-a]isoquinoline-3-carboxylic acid]",12 nM
7,"COc1cc2c(cc1-c1cnc(NCC(=O)O)nc1)CC(C(C)(C)C)n1cc(C(=O)O)c(=O)cc1-2 (stereo not shown) [Example 78, 6-(tert-butyl)-9-(2-((carboxymethyl)amino)pyrimidin-5-yl)-10-methoxy-2-oxo-6,7-dihydro-2H-pyrido[2,1-a]isoquinoline-3-carboxylic acid]",45 nM
8,"COc1cc2c(cc1-c1ccccc1)CC(C(C)(C)C)n1cc(C(=O)O)c(=O)cc1-2 (stereo not shown) [Example 33, 6-(tert-butyl)-10-methoxy-2-oxo-9-phenyl-6,7-dihydro-2H-pyrido[2,1-a]isoquinoline-3-carboxylic acid]",20 nM
9,"COc1cc2c(cc1-c1cnc(NC3CCC3)nc1)CC(C(C)(C)C)n1cc(C(=O)O)c(=O)cc1-2 (stereo not shown) [Example 76, 6-(tert-butyl)-9-(2-(cyclobutylamino)pyrimidin-5-yl)-10-methoxy-2-oxo-6,7-dihydro-2H-pyrido[2,1-a]isoquinoline-3-carboxylic acid]",0.4 nM
10,"COc1cc2c(cc1-c1cnn(C3COC3)c1)CC(C(C)(C)C)n1cc(C(=O)O)c(=O)cc1-2 (stereo not shown) [Example 11, 6-(tert-butyl)-10-methoxy-9-(1-(oxetan-3-yl)-1H-pyrazol-4-yl)-2-oxo-6,7-dihydro-2H-pyrido[2,1-a]isoquinoline-2-carboxylic acid]",3 nM
11,"COc1cc2c(cc1-c1cnn(CCN3CCOCC3)c1)CC(C(C)(C)C)n1cc(C(=O)O)c(=O)cc1-2 (stereo not shown) [Example 16, 6-(tert-butyl)-10-methoxy-9-(1-(2-morpholinylethyl)-1H-pyrazol-4-yl)-2-oxo-6,7-dihydro-2H-pyrido[2,1-a]isoquinoline-3-carboxylaic acid]",2 nM
12,"COc1cc2c(cc1-c1ccc(C)nc1)CC(C(C)C)n1cc(C(=O)O)c(=O)cc1-2 (stereo not shown) [Example 7, 6-isopropyl-10-methoxy-9-(6-methylpyridin-3-yl)-2-oxo-6,7-dihydro-2H-pyrido[2,1-a]isoquinoline-3-carboxylic acid]",36 nM
13,"COc1cc2c(cc1-c1cnn(CCCO)c1)CC(C(C)C)n1cc(C(=O)O)c(=O)cc1-2 (stereo not shown) [Example 4, 9-(1-(3-hydroxypropyl)-1H-pyrazol-4-yl)-6-isopropyl-10-methoxy-2-oxo-6,7-dihydro-2H-pyrido[2,1-a]isoquinoline-3-carboxxylic acid]",24 nM
14,"COc1cc2c(cc1-c1ccc(N)nc1)CC(C(C)(C)C)n1cc(C(=O)O)c(=O)cc1-2 (stereo not shown) [Example 54, 9-(6-aminopyridin-3-yl)-6-(tert-butyl)-10-methoxy-2-oxo-6,7-dihydro-2H-pyrido[2,1-a]isoquinoline-3-carboxylic acid]",1 nM
15,"COc1cc2c(cc1-c1cc(C)nn1C)CC(C(C)(C)C)n1cc(C(=O)O)c(=O)cc1-2 (stereo not shown) [Example 15, 6-(tert-butyl)-9-(1,3-dimethyl-1H-pyrazol-5-yl)-10-methoxy-2-oxo-6,7-dihydro-2H-pyrido[2,1-a]isoquinoline-3-carboxylic acid]",4 nM
16,"COc1cc2c(cc1-c1cccnc1C)CC(C(C)(C)C)n1cc(C(=O)O)c(=O)cc1-2 (stereo not shown) [Example 39, 6-(tert-butyl)-10-methoxy-9-(2-methylpyridin-3-yl)-2-oxo-6,7-dihydro-2H-pyrido[2,1-a]isoquinoline-3-carboxylic acid]",25 nM
17,"COCCn1cc(-c2cc3c(cc2OC)-c2cc(=O)c(C(=O)O)cn2C(C(C)C)C3)cn1 (stereo not shown) [Example 3, 6-isopropyl-10-methoxy-9-(1-(2-methoxyethyl)-1H-pyrazol-4-yl)-2-oxo-6,7-dihydro-2H-pyrido[2,1-a]isoquinoline-3-carboxylic acid]",18 nM
18,"COc1cc2c(cc1-c1cnn(CC(F)(F)F)c1)CC(C(C)(C)C)n1cc(C(=O)O)c(=O)cc1-2 (stereo not shown) [Example 10, 6-(tert-butyl)-10-methoxy-2-oxo-9-(1-(2,2,2-trifluoroethyl)-1H-pyrazol-4-yl)-6,7-dihydro-2H-pyrido[2,1-a]isoquinoline-3-carboxylic acid]",6 nM
19,"CCCn1cc(-c2cc3c(cc2OC)-c2cc(=O)c(C(=O)O)cn2C(C(C)C)C3)cn1 (stereo not shown) [Example 6, 6-isopropyl-10-methoxy-2-oxo-9-(1-propyl-1H-pyrazol-4-yl)-6,7-dihydro-2H-pyrido[2,1-a]isoquinoline-3-carboxylic acid]",6 nM
20,"COc1cc2c(cc1-c1cnn(C(C)(C)C(=O)O)c1)CC(C(C)(C)C)n1cc(C(=O)O)c(=O)cc1-2 (stereo not shown) [Example 27, 6-(tert-butyl)-9-(1-(2-carboxyprop-2-yl)-1H-pyrazol-4-yl)-10-methoxy-2-oxo-6,7-dihydro-2H-pyrido[2,1-a]isoquinoline-3-carboxylic acid]",4 nM
21,"COc1cc2c(cc1-c1cnn(C(F)F)c1)CC(C(C)(C)C)n1cc(C(=O)O)c(=O)cc1-2 (stereo not shown) [Example 14, 6-(tert-butyl)-9-(1-(difluoromethyl)-1H-pyrazol-4-yl)-10-methoxy-2-oxo-6,7-dihydro-2H-pyrido[2,1-a]isoquinoline-3-carboxylic acid]",2 nM
22,"COc1cc2c(cc1-c1cnc(N(C)C)nc1)CC(C(C)(C)C)n1cc(C(=O)O)c(=O)cc1-2 (stereo not shown) [Example 61, 6-(tert-butyl)-9-(2-(dimethylamino)pyrimidin-5-yl)-10-methoxy-2-oxo-6,7-dihydro-2H-pyrido[2,1-a]isoquinoline-3-carboxylic acid]",4 nM
